Experimental data published in patent publication US8536164B2, “Fused pyridine compounds as casein kinase inhibitors” (Pfizer Inc., priority 2010, dated 2013).

How the values were obtained:
[1] = target: CKI ε wild type (Homo sapiens, UniProt P49674); assay: CK1ε kinase assay (Kinase-Glo); assay type: biochemical; conditions: 10 μM ATP, 2.5 nM CKI ε, 70 min at 25° C.; read-out: CK1 ε:IC50
Protocol: (§1) The CK1ε kinase assay was performed in a 40-μl final volume in buffer containing 50 mM Tris, pH 7.5, 10 mM MgCl2, 1 mM dithiothreitol, 100 μg/mL BSA with 10 μM ATP, 2.5 nM CKI ε wild type, and 42 μM peptide substrate PLSRTLp[…] (Flotow et al., 1990) in the presence of 1 μl of CKI ε inhibitor or 4% DMSO. The reaction was incubated for 70 min at 25° C.; detection was carried out as described for the Kinase-Glo Assay (Promega). Luminescent output was measured on the Perkin Elmer Envision plate reader (PerkinElmer, Waltham, Mass.).

[2] = target: CKIδ wild type (Homo sapiens, UniProt P48730); assay: CK1δ kinase assay (Kinase-Glo); assay type: biochemical; conditions: 10 μM ATP, 2 nM CKIδ, 85 min at 25° C.; read-out: CK1 δ IC50
CKIδ wild type, sequence (P48730 whole entry): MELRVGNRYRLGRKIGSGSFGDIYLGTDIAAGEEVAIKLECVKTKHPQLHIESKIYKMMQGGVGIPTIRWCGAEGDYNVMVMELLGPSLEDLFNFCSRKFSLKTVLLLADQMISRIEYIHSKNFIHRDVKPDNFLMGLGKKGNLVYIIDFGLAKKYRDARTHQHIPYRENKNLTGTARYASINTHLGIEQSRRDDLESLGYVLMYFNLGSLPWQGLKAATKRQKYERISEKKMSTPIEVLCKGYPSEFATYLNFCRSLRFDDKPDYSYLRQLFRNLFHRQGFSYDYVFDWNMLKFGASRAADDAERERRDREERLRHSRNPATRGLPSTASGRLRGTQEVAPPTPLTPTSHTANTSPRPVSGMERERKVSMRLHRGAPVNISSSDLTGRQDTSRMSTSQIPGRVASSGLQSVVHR
Protocol: as §1, with “CK1δ” for “CK1ε”, “40 μl” for “40-μl”, “2” for “2.5”, “CKIδ” for “CKI ε”, “85” for “70”

[3] = target: T1, human CK1δ (Cos 7 cells cotransfected with mouse Per3-GFP) (Homo sapiens, UniProt P48730); assay: CK1 WCA HCS nuclear translocation assay (CK1δ); assay type: cell-based; conditions: inhibition of mPer3-GFP translocation to the nucleus, overnight exposure, read-out: CK1 δ WCA EC50
T1 construct: His tag of the vector pcDNA4/hisA (only the vector name is printed); expressed in transfected cells; host or cells: Cos 7 cells
T1 sequence (P48730 whole entry): as above
Protocol: CK1 WCA HCS Nuclear Translocation Assay.
Cos 7 cells were maintained at 37° C. in 5% CO2 in Dulbecco's Modified Eagle Medium (Gibco 11995) supplemented with 10% fetal bovine serum. Log-phase cells were dislodged with 5 min treatment of TrypLE Express (Gibco 12605) and viable cell count was determined with Cedex cell counter. Cells were diluted in DMEM medium to a density of 1.5e5 viable cells/mL in ⅔ of the final volume of final transfected cell mix. Cells were cotransfected with two plasmid DNAs, mouse Per3-GFP (green fluorescent protein) in pd2EGFP-N1 vector and human CKI in pcDNA4/hisA vector (for CK1Epsilon at a ratio of 1:5 respectively; for CK1δ at a ratio of 1:11 respectively), using Lipofectamine 2000 reagent (Invitrogen) according to the manufacturer's recommendations. The transfection mix contained approximately 0.83 μg/mL of DNA and 6 μL/mL of Lipofectamine 2000, in a total of ⅓ of the final transfection volume in Opti-MEM I medium (Invitrogen). After 20 min at rt, the cell mix was combined with the DNA transfection mix, per manufacturer instructions. 50 μL of the transfected cell suspension was dispensed per well by multidrop dispenser into Greiner 384-well Cellcoat (PDL) plates (Greiner #781946).
Compounds were solubilized in 100% DMSO, diluted with Opti-MEM I to a 4× concentration before addition to plated cells. After overnight exposure at 37° C. in a CO2 incubator, cells were fixed by the addition of 12% paraformaldehyde (Electron Microscopy Sciences, Hatfield, Pa.) in phosphate-buffered saline (PBS) with 20% sucrose to a final concentration of 4%, and then the cells were incubated for 30 min at rt. Fixative was removed, and cells were washed with PBS and then stained with 0.4 μg/ml Hoechst dye (Invitrogen) in blocking buffer containing 4% goat serum (Vector Labs s-1000) and 0.1% TritonX (Sigma T8787) for 1 h. Cells were washed again with PBS and stored at 4° C. in PBS or scanned immediately with the Cellomics ArrayScan VTI. CKIδ dependent nuclear localization of the GFP-tagged mPer3 protein was quantitated using the Cellomics ArrayScan VTI system utilizing the Cytoplasm to Nucleus translocation bioapplication to calculate the Nuclear-Cytoplasmic Intensity difference. Inhibitors of CK1 δ/ε were tested across a dose response curve to evaluate their ability to inhibit mPer3-GFP translocation to the nucleus. Cells with a total intensity of mPER3:GFP expression equal to or greater than 20,000 are included in analysis.

CKI ε wild type, sequence (P49674 whole entry): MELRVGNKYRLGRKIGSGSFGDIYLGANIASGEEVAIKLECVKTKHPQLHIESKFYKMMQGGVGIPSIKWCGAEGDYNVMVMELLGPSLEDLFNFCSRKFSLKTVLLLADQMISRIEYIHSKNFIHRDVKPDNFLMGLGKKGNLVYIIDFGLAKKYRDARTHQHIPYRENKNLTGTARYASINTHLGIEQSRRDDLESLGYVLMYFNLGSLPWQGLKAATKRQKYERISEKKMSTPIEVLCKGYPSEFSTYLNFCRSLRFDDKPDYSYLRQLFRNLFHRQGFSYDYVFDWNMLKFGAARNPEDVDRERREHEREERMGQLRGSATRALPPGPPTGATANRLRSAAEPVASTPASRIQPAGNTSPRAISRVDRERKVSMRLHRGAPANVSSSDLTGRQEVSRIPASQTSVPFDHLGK

SMILES | IC50 [1] | IC50 [2] | EC50 [3]
Cn1cc(-c2ccnc3c2C(=O)N(Cc2cccc(C#N)c2)C3)c(-c2ccc(F)cc2)n1 [Example 41, 3-({4-[3-(4-fluorophenyl)-1-methyl-1H-pyrazol-4-yl]-5-oxo-5,7-dihydro-6H-pyrrolo[3,4-b]pyridin-6-yl}methyl)benzonitrile] | 108 nM | 20.5 nM | 65.5 nM
Cn1cc(-c2ccnc3c2C(=O)N(CCC#N)C3)c(-c2ccc(F)cc2)n1 [Example 40, 3-{4-[3-(4-fluorophenyl)-1-methyl-1H-pyrazol-4-yl]-5-oxo-5,7-dihydro-6H-pyrrolo[3,4-b]pyridin-6-yl}propanenitrile] | 47.1 nM | 11.1 nM | 53.7 nM
Cc1cc(CN2Cc3nccc(-c4cn(C)nc4-c4ccc(F)cc4)c3C2=O)nn1C [Example 28, 6-[(1,5-dimethyl-1H-pyrazol-3-yl)methyl]-4-[3-(4-fluorophenyl)-1-methyl-1H-pyrazol-4-yl]-6,7-dihydro-5H-pyrrolo[3,4-b]pyridin-5-one] | 86.4 nM | 15.7 nM | 66.4 nM
Cn1cc(-c2ccnc3c2C(=O)N(Cc2ccccc2)C3)c(-c2ccc(F)cc2)n1 [Example 5, 6-benzyl-4-[3-(4-fluorophenyl)-1-methyl-1H-pyrazol-4-yl]-6,7-dihydro-5H-pyrrolo[3,4-b]pyridin-5-one] | 39 nM | 6.05 nM | 16.4 nM
COC(=O)C1(N2Cc3nccc(-c4cn(C)nc4-c4ccc(F)cc4)c3C2=O)CC1 [Example 31, methyl 1-{4-[3-(4-fluorophenyl)-1-methyl-1H-pyrazol-4-yl]-5-oxo-5,7-dihydro-6H-pyrrolo[3,4-b]pyridin-6-yl}cyclopropanecarboxylate] | 187 nM | 48.1 nM | 304 nM
Cn1cc(-c2ccnc3c2CCC3O)c(-c2ccc(F)cc2)n1 (stereo not drawn) [Example 24, 4-[3-(4-fluorophenyl)-1-methyl-1H-pyrazol-4-yl]-6,7-dihydro-5H-cyclopenta[b]pyridin-7-ol] | 149 nM | 28.5 nM | 266 nM
CC(C)CN1Cc2nccc(-c3cn(C)nc3-c3ccc(F)cc3)c2C1=O [Example 39, 4-[3-(4-fluorophenyl)-1-methyl-1H-pyrazol-4-yl]-6-isobutyl-6,7-dihydro-5H-pyrrolo[3,4-b]pyridin-5-one] | 241 nM | 49.5 nM | 188 nM
Cn1cc(-c2ccnc3c2C(=O)N(C2CCOCC2)C3)c(-c2ccc(F)cc2)n1 [Example 36, 4-[3-(4-fluorophenyl)-1-methyl-1H-pyrazol-4-yl]-6-(tetrahydro-2H-pyran-4-yl)-6,7-dihydro-5H-pyrrolo[3,4-b]pyridin-5-one] | > 516 nM | > 195 nM | 224 nM
Cn1cc(-c2ccnc3c2C(=O)N(C2CCCC2)C3)c(-c2ccc(F)cc2)n1 [Example 32, 6-cyclopentyl-4-[3-(4-fluorophenyl)-1-methyl-1H-pyrazol-4-yl]-6,7-dihydro-5H-pyrrolo[3,4-b]pyridin-5-one] | 40.8 nM | 8.93 nM | 84.9 nM
Cn1cc(-c2ccnc3c2CCC3)c(-c2ccc(F)cc2)n1 [Example 23, 4-[3-(4-fluorophenyl)-1-methyl-1H-pyrazol-4-yl]-6,7-dihydro-5H-cyclopenta[b]pyridine] | 157 nM | 25.4 nM | 214 nM
CNC1CCc2c(-c3cn(C)nc3-c3ccc(F)cc3)ccnc21 (stereo not drawn) [Example 25, 4-[3-(4-fluorophenyl)-1-methyl-1H-pyrazol-4-yl]-N-methyl-6,7-dihydro-5H-cyclopenta[b]pyridin-7-amine] | 83.7 nM | 17.4 nM | 59.8 nM
Cn1cc(-c2ccnc3c2CN(Cc2ccccc2)C3)c(-c2ccc(F)cc2)n1 [Example 6, 6-benzyl-4-[3-(4-fluorophenyl)-1-methyl-1H-pyrazol-4-yl]-6,7-dihydro-5H-pyrrolo[3,4-b]pyridine] | 292 nM | 61 nM | 204 nM
Cn1cc(CCN2Cc3nccc(-c4cn(C)nc4-c4ccc(F)cc4)c3C2=O)cn1 [Example 33, 4-[3-(4-fluorophenyl)-1-methyl-1H-pyrazol-4-yl]-6-[2-(1-methyl-1H-pyrazol-4-yl)ethyl]-6,7-dihydro-5H-pyrrolo[3,4-b]pyridin-5-one] | > 230 nM | > 75.5 nM | 232 nM

Now from value to compound:

IC50 [1] | IC50 [2] | EC50 [3] | SMILES
386 nM | 67.3 nM | 623 nM | COCCN1Cc2nccc(-c3cn(C)nc3-c3ccc(F)cc3)c2C1=O [Example 42, 4-[3-(4-fluorophenyl)-1-methyl-1H-pyrazol-4-yl]-6-(2-methoxyethyl)-6,7-dihydro-5H-pyrrolo[3,4-b]pyridin-5-one]
80.7 nM | 18.4 nM | 130 nM | Cn1cc(-c2ccnc3c2C(=O)N(C24CC(C2)C4)C3)c(-c2ccc(F)cc2)n1 [Example 48, 6-bicyclo[1.1.1]pent-1-yl-4-[3-(4-fluorophenyl)-1-methyl-1H-pyrazol-4-yl]-6,7-dihydro-5H-pyrrolo[3,4-b]pyridin-5-one]
342 nM | 70.8 nM | 437 nM | COC[C@H]1CCC[C@H]1N1Cc2nccc(-c3cn(C)nc3-c3ccc(F)cc3)c2C1=O [Example 44, 4-[3-(4-fluorophenyl)-1-methyl-1H-pyrazol-4-yl]-6-[(1R,2S)-2-(methoxymethyl)cyclopentyl]-6,7-dihydro-5H-pyrrolo[3,4-b]pyridin-5-one]
145 nM | 21.3 nM | 83.6 nM | Cn1cc(-c2ccnc3c2C(=O)N(Cc2cccnc2)C3)c(-c2ccc(F)cc2)n1 [Example 50, 4-[3-(4-fluorophenyl)-1-methyl-1H-pyrazol-4-yl]-6-(pyridin-3-ylmethyl)-6,7-dihydro-5H-pyrrolo[3,4-b]pyridin-5-one]
496 nM | 108 nM | 506 nM | CC(C)OC(=O)CN1Cc2nccc(-c3cn(C)nc3-c3ccc(F)cc3)c2C1=O [Example 49, isopropyl {4-[3-(4-fluorophenyl)-1-methyl-1H-pyrazol-4-yl]-5-oxo-5,7-dihydro-6H-pyrrolo[3,4-b]pyridin-6-yl}acetate]
384 nM | 68.7 nM | 1430 nM | Cn1cc(-c2ccnc3c2C(=O)N([C@H]2CCOC2=O)C3)c(-c2ccc(F)cc2)n1 [Example 46, 4-[3-(4-fluorophenyl)-1-methyl-1H-pyrazol-4-yl]-6-[(3S)-2-oxotetrahydrofuran-3-yl]-6,7-dihydro-5H-pyrrolo[3,4-b]pyridin-5-one]
63.8 nM | 14.6 nM | 129 nM | CCOCCCN1Cc2nccc(-c3cn(C)nc3-c3ccc(F)cc3)c2C1=O [Example 51, 6-(3-ethoxypropyl)-4-[3-(4-fluorophenyl)-1-methyl-1H-pyrazol-4-yl]-6,7-dihydro-5H-pyrrolo[3,4-b]pyridin-5-one]
512 nM | 93.2 nM | 564 nM | CN(C)C(=O)CN1Cc2nccc(-c3cn(C)nc3-c3ccc(F)cc3)c2C1=O [Example 43, 2-{4-[3-(4-fluorophenyl)-1-methyl-1H-pyrazol-4-yl]-5-oxo-5,7-dihydro-6H-pyrrolo[3,4-b]pyridin-6-yl}-N,N-dimethylacetamide]
